Measured values: patent US10898480B1, “Pharmaceutical composition for nasal delivery” (Orexo AB, priority 2019, dated 2021)

System: excised porcine nasal tissue
Assay: Ex vivo nasal mucosal absorption, static diffusion (Franz) cell
Conditions: diffusion measured after 7 hours, compared with the other formulations
Method: A standard static diffusion (Franz) cell set up was employed to set up an ex vivo model for nasal mucosa absorption, using an excised porcine nasal tissue.
Diffusion through the tissue was measured after 7 hours and permeation is shown as mean (three repeats) cumulative transport (μg/cm^2; with SD) in FIGS. 8 and 9 for naloxone and nalmefene, respectively.

benzalkonium chloride was tested, and the “Apparent permeation coefficient (Papp) of nalmefene” value was “No corresponding absorption enhancement” and the “Apparent permeation coefficient (Papp) of naloxone” value was “No corresponding absorption enhancement”.
